Measured values reported in patent US20260262643A1, “HERBICIDAL BENZOXAZINES” (FMC CORPORATION, priority 2022, published 2026).

Tests used:
[1] = tested on: wheat; test: Test C preemergence; format: in vivo, Triticum aestivum
How it was run: (§1)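 Seeds sown in loam soil–sand blend received a directed preemergence soil spray of test chemical in non-phytotoxic solvent with surfactant; postemergence plants (2–10 cm, one- to two-leaf stage) were sprayed with the same formulation. Greenhouse-held 10 days, then visually rated for injury versus untreated controls, 0 (no effect) to 100 (complete control).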

[2] = tested on: barnyardgrass; test: Test C preemergence; format: in vivo, Echinochloa crusgalli
How it was run: as §1

[3] = tested on: corn; test: Test C preemergence; format: in vivo, Zea mays
How it was run: as §1

[4] = tested on: foxtail, giant; test: Test C postemergence; format: in vivo, Setaria faberi; conditions: 10 days, 0 to 100 scale (0 no effect, 100 complete control)
How it was run: as §1

[5] = tested on: pigweed, palmer; test: Test C postemergence; format: in vivo, Amaranthus palmeri; conditions: 10 days, 0 to 100 scale (0 no effect, 100 complete control)
How it was run: as §1

[6] = tested on: soybean; test: Test C postemergence; format: in vivo, Glycine max; conditions: 10 days, 0 to 100 scale (0 no effect, 100 complete control)
How it was run: as §1

[7] = tested on: galium; test: Test C postemergence; format: in vivo, Galium aparine; conditions: 10 days, 0 to 100 scale (0 no effect, 100 complete control)
How it was run: as §1

[8] = tested on: rice; test: Test D flooded paddy test; format: in vivo, Oryza sativa; conditions: 250 g ai/ha, applied to paddy water, visual rating after 13 to 14 days, scale 0 to 100 (0 no effect, 100 complete control)
How it was run: (§2)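 Compounds go straight into paddy water over 2-leaf plants in pots flooded to 3 cm. Greenhouse holding lasts 13 to 14 days. Injury is scored by eye against controls from 0 (none) to 100 (complete control).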

[9] = tested on: soybean; test: Test C preemergence; format: in vivo, Glycine max
How it was run: as §1

[10] = tested on: oat, wild; test: Test C preemergence; format: in vivo, Avena fatua
How it was run: as §1

[11] = tested on: ragweed; test: Test C postemergence; format: in vivo, Ambrosia artemisiifolia; conditions: 10 days, 0 to 100 scale (0 no effect, 100 complete control)
How it was run: as §1

[12] = tested on: ragweed; test: Test C preemergence; format: in vivo, Ambrosia artemisiifolia
How it was run: as §1

[13] = tested on: corn; test: Test C postemergence; format: in vivo, Zea mays; conditions: 10 days, 0 to 100 scale (0 no effect, 100 complete control)
How it was run: as §1

[14] = tested on: oat, wild; test: Test C postemergence; format: in vivo, Avena fatua; conditions: 10 days, 0 to 100 scale (0 no effect, 100 complete control)
How it was run: as §1

[15] = tested on: ducksalad; test: Test D flooded paddy test; format: in vivo, Heteranthera limosa; conditions: 250 g ai/ha, applied to paddy water, visual rating after 13 to 14 days, scale 0 to 100 (0 no effect, 100 complete control)
How it was run: as §2

[16] = tested on: blackgrass; test: Test C postemergence; format: in vivo, Alopecurus myosuroides; conditions: 10 days, 0 to 100 scale (0 no effect, 100 complete control)
How it was run: as §1

[17] = tested on: kochia; test: Test C preemergence; format: in vivo, Bassia scoparia
How it was run: as §1

[18] = tested on: wheat; test: Test C postemergence; format: in vivo, Triticum aestivum; conditions: 10 days, 0 to 100 scale (0 no effect, 100 complete control)
How it was run: as §1

[19] = tested on: blackgrass; test: Test C preemergence; format: in vivo, Alopecurus myosuroides
How it was run: as §1

[20] = tested on: kochia; test: Test C postemergence; format: in vivo, Bassia scoparia; conditions: 10 days, 0 to 100 scale (0 no effect, 100 complete control)
How it was run: as §1

[21] = tested on: barnyardgrass; test: Test C postemergence; format: in vivo, Echinochloa crusgalli; conditions: 10 days, 0 to 100 scale (0 no effect, 100 complete control)
How it was run: as §1

[22] = tested on: foxtail, giant; test: Test C preemergence; format: in vivo, Setaria faberi
How it was run: as §1

[23] = tested on: sedge, umbrella; test: Test D flooded paddy test; format: in vivo, Cyperus difformis; conditions: 250 g ai/ha, applied to paddy water, visual rating after 13 to 14 days, scale 0 to 100 (0 no effect, 100 complete control)
How it was run: as §2

[24] = tested on: horseweed; test: Test C postemergence; format: in vivo, Erigeron canadensis; conditions: 10 days, 0 to 100 scale (0 no effect, 100 complete control)
How it was run: as §1

[25] = tested on: ryegrass, Italian; test: Test C preemergence; format: in vivo, Lolium multiflorum
How it was run: as §1

[26] = tested on: ryegrass, Italian; test: Test C postemergence; format: in vivo, Lolium multiflorum; conditions: 10 days, 0 to 100 scale (0 no effect, 100 complete control)
How it was run: as §1

[27] = tested on: barnyardgrass; test: Test D flooded paddy test; format: in vivo, Echinochloa crus-galli; conditions: 250 g ai/ha, applied to paddy water, visual rating after 13 to 14 days, scale 0 to 100 (0 no effect, 100 complete control)
How it was run: as §2

[28] = tested on: pigweed, palmer; test: Test C preemergence; format: in vivo, Amaranthus palmeri
How it was run: as §1

[29] = 500 g ai/ha, preemergence, 0 to 100 scale (0 no effect, 100 complete control)
[30] = Preemergence, 125 g ai/ha, 0 to 100 scale, 0 no effect, 100 complete control

## Cc1cccc2c1OC(C(F)(F)F)CN2C(=O)c1ccnc(-n2cnc(C(C)C)n2)c1 (stereo not shown) [Compound 327]
[1]; [29]
  Wheat plant response rating: 90
[1]; [30]
  Plant response rating, Wheat: 40
[2]; [29]
  Barnyardgrass plant response rating: 90
[2]; [30]
  Plant response rating, Barnyardgrass: 50
[3]; [29]
  Corn plant response rating: 70
[3]; [30]
  Plant response rating, Corn: 20
[4]; 500 g ai/ha, postemergence
  Plant response rating, Foxtail, Giant: 90
[4]; Postemergence, 125 g ai/ha
  Plant response rating, Foxtail, Giant: 60
[5]; 500 g ai/ha, postemergence
  Plant response rating, Pigweed, Palmer: 50
[5]; Postemergence, 125 g ai/ha
  Plant response rating, Pigweed, Palmer: 30
[6]; 500 g ai/ha, postemergence
  Plant response rating, Soybean: 100
[6]; Postemergence, 125 g ai/ha
  Plant response rating, Soybean: 100
[7]; 500 g ai/ha, postemergence
  Plant response rating, Galium: 100
[7]; Postemergence, 125 g ai/ha
  Plant response rating, Galium: 70
[8]
  Plant response rating, Rice (Flood): 0
[9]; [29]
  Soybean plant response rating: 100
[9]; [30]
  Plant response rating, Soybean: 100
[10]; [29]
  Oat, Wild plant response rating: 70
[10]; [30]
  Plant response rating, Oat, Wild: 20
[11]; 500 g ai/ha, postemergence
  Plant response rating, Ragweed: 40
[11]; Postemergence, 125 g ai/ha
  Plant response rating, Ragweed: 30
[12]; [29]
  Ragweed plant response rating: 30
[12]; [30]
  Plant response rating, Ragweed: 0
[13]; 500 g ai/ha, postemergence
  Plant response rating, Corn: 90
[13]; Postemergence, 125 g ai/ha
  Plant response rating, Corn: 70
[14]; 500 g ai/ha, postemergence
  Plant response rating, Oat, Wild: 90
[14]; Postemergence, 125 g ai/ha
  Plant response rating, Oat, Wild: 40
[15]
  Plant response rating, Ducksalad (Flood): 25
[16]; 500 g ai/ha, postemergence
  Plant response rating, Blackgrass: 90
[16]; Postemergence, 125 g ai/ha
  Plant response rating, Blackgrass: 30
[17]; [29]
  Kochia plant response rating: 90
[17]; [30]
  Plant response rating, Kochia: 20
[18]; 500 g ai/ha, postemergence
  Plant response rating, Wheat: 30
[18]; Postemergence, 125 g ai/ha
  Plant response rating, Wheat: 20
[19]; [29]
  Blackgrass plant response rating: 90
[19]; [30]
  Plant response rating, Blackgrass: 90
[20]; 500 g ai/ha, postemergence
  Plant response rating, Kochia: 90
[20]; Postemergence, 125 g ai/ha
  Plant response rating, Kochia: 40
[21]; 500 g ai/ha, postemergence
  Plant response rating, Barnyardgrass: 90
[21]; Postemergence, 125 g ai/ha
  Plant response rating, Barnyardgrass: 40
[22]; [29]
  Foxtail, Giant plant response rating: 100
[22]; [30]
  Plant response rating, Foxtail, Giant: 100
[23]
  Plant response rating, Sedge, Umbrella (Flood): 70
[24]; 500 g ai/ha, postemergence
  Plant response rating, Horseweed: 60
[24]; Postemergence, 125 g ai/ha
  Plant response rating, Horseweed: 0
[25]; [29]
  Ryegrass, Italian plant response rating: 100
[25]; [30]
  Plant response rating, Ryegrass, Italian: 90
[26]; 500 g ai/ha, postemergence
  Plant response rating, Ryegrass, Italian: 80
[26]; Postemergence, 125 g ai/ha
  Plant response rating, Ryegrass, Italian: 40
[27]
  Plant response rating, Barnyardgrass (Flood): 15
[28]; [29]
  Pigweed, Palmer plant response rating: 90
[28]; [30]
  Plant response rating, Pigweed, Palmer: 50
